Laboratory results from patent US8765940B2 (priority 2009, dated 2014).

Target: PI3Kδ (Homo sapiens (Human), UniProt O00329)
Assay type: biochemical
Conditions: PI3Kδ Alphascreen assay

PI3Kδ, sequence (O00329 whole entry): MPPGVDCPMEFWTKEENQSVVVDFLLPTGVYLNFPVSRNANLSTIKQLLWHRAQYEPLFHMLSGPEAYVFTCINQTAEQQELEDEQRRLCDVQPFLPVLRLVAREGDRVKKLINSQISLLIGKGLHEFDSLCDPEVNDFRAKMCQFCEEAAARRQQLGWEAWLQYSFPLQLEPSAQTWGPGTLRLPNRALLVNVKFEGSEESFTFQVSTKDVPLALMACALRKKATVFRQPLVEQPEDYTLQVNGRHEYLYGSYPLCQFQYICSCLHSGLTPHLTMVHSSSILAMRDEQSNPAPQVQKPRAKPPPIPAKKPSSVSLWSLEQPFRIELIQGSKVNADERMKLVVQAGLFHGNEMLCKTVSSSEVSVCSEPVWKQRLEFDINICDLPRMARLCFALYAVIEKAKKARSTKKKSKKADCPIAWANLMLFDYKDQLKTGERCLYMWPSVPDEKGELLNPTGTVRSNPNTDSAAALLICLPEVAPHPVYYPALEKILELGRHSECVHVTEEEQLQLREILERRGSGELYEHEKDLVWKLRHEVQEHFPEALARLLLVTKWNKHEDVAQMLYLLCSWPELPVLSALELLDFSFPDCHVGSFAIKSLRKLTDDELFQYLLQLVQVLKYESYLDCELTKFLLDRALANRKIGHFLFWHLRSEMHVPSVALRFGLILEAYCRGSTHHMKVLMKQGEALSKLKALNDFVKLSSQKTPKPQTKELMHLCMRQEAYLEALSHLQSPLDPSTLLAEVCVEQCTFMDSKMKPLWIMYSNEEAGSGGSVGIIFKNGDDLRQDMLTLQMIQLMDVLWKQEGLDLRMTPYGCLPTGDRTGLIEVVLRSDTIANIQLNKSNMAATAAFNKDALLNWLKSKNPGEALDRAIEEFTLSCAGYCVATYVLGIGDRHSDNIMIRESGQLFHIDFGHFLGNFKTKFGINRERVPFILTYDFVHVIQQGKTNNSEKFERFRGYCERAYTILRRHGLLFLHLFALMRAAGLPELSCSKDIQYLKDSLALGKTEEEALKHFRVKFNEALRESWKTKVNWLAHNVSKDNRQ
PI3Kδ, sequence (P27986 whole entry partner): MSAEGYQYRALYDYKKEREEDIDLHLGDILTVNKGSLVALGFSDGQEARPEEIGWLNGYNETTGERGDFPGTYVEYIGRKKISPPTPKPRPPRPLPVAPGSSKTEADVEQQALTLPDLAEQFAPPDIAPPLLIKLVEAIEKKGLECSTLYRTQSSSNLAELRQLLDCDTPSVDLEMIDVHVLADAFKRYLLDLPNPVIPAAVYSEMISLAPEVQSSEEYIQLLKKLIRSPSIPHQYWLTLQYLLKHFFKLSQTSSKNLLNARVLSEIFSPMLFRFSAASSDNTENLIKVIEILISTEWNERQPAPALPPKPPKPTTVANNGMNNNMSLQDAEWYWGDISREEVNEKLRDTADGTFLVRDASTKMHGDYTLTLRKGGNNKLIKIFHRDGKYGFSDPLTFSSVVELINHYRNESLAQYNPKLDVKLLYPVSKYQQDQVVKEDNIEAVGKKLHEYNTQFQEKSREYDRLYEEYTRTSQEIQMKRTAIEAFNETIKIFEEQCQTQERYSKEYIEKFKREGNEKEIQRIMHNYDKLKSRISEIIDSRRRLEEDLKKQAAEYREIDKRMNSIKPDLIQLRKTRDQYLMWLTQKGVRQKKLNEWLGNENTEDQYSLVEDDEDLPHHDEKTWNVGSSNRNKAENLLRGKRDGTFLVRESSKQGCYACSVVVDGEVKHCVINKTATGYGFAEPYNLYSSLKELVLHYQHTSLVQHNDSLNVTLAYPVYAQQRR

Row | Ki | Compound
1 | 0.0235 µM | Cc1c(-c2ccccc2F)nc2cccc(F)c2c1N1CCS(=O)(=O)c2ccc(N3CCOCC3)cc21 [4-(5-fluoro-2-(2-fluorophenyl)-3-methyl-4-quinolinyl)-6-(4-morpholinyl)-3,4-dihydro-2H-1,4-benzothiazine 1,1-dioxide]
2 | 0.0147 µM | Cc1c(-c2cccc(=O)[nH]2)nc2cc(F)ccc2c1N1CC(C)(C)c2ncc(N3CCOCC3)cc21 [6-(4-(3,3-dimethyl-6-(4-morpholinyl)-2,3-dihydro-1H-pyrrolo[3,2-b]pyridin-1-yl)-7-fluoro-3-methyl-2-quinolinyl)-2(1H)-pyridinone]
3 | 0.0687 µM | Cc1ccnc(-c2nc3ncccc3c(N3CC(C)(C)c4nc(Cl)c(N5CCOCC5)cc43)c2C)c1 [4-(5-chloro-3,3-dimethyl-6-(4-morpholinyl)-2,3-dihydro-1H-pyrrolo[3,2-b]pyridin-1-yl)-3-methyl-2-(4-methyl-2-pyridinyl)-1,8-naphthyridine]
4 | 9.53 µM | Cc1nc2ccc(Cl)cc2c(N2CC(C)(C)c3ccc(-c4cn[nH]c4)cc32)c1C [6-chloro-4-(3,3-dimethyl-6-(1H-pyrazol-4-yl)-2,3-dihydro-1H-indol-1-yl)-2,3-dimethylquinoline]
5 | 0.121 µM | Cc1nc2c(C)cccc2c(N2CC3(CCOCC3)c3ccc(N4CCOCC4)cc32)c1C [6-(4-morpholinyl)-1-(2,3,8-trimethyl-4-quinolinyl)-1,2,2′,3′,5′,6′-hexahydrospiro[indole-3,4′-pyran]]
6 | 0.0167 µM | Cc1c(-c2cncc(S(C)(=O)=O)c2)nc2cc(F)cc(F)c2c1N1CC(C)(C)c2ncc(N3CCOCC3)cc21 [4-(3,3-dimethyl-6-(4-morpholinyl)-2,3-dihydro-1H-pyrrolo[3,2-b]pyridin-1-yl)-5,7-difluoro-3-methyl-2-(5-(methylsulfonyl)-3-pyridinyl)quinoline]
7 | 0.0171 µM | Cc1c(Nc2ccccn2)nc2cc(F)cc(F)c2c1N1CC(C)(C)c2ncc(N3CCOCC3)cc21 [4-(3,3-dimethyl-6-morpholino-2,3-dihydro-1H-pyrrolo[3,2-b]pyridin-1-yl)-5,7-difluoro-3-methyl-N-(pyridin-2-yl)quinolin-2-amine]
8 | 0.618 µM | Cc1nc2c(C)cc(Cl)cc2c(N2CC(C)(C)c3ccc(N4CCOCC4)cc32)c1C [6-chloro-4-(3,3-dimethyl-6-(4-morpholinyl)-2,3-dihydro-1H-indol-1-yl)-2,3,8-trimethylquinoline]
9 | 0.0124 µM | Cc1c(N2CCN(C(=O)OC(C)(C)C)CC2)nc2cc(F)cc(F)c2c1N1CC2(CCOCC2)c2ncc(N3CCOCC3)cc21 [tert-butyl 4-(5,7-difluoro-3-methyl-4-(6′-(4-morpholinyl)-2,3,5,6-tetrahydrospiro[pyran-4,3′-pyrrolo[3,2-b]pyridin]-1′(2′H)-yl)-2-quinolinyl)-1-piperazinecarboxylate]
10 | 0.00812 µM | Cc1c(CCc2ccccc2)nc2cc(F)cc(F)c2c1N1CC(C)(C)c2ncc(N3CCOCC3)cc21 [4-(3,3-dimethyl-6-(4-morpholinyl)-2,3-dihydro-1H-pyrrolo[3,2-b]pyridin-1-yl)-5,7-difluoro-3-methyl-2-(2-phenylethyl)quinoline]
11 | 0.05 µM | Cc1nc2c(Cl)cccc2c(N2CC(C)(C)c3ccc(N4CCOCC4)cc32)c1C [8-chloro-4-(3,3-dimethyl-6-(4-morpholinyl)-2,3-dihydro-1H-indol-1-yl)-2,3-dimethylquinoline]

Further lines, the compound ahead of its results:

Row | Compound | Ki
12 | Cc1c(N2CCN(S(C)(=O)=O)CC2)nc2cc(F)cc(F)c2c1N1CC2(CCOCC2)c2ncc(N3CCOCC3)cc21 [1′-(5,7-difluoro-3-methyl-2-(4-(methylsulfonyl)-1-piperazinyl)-4-quinolinyl)-6′-(4-morpholinyl)-1′,2,2′,3,5,6-hexahydrospiro[pyran-4,3′-pyrrolo[3,2-b]pyridine]] | 0.0023 µM
13 | Cc1c(-c2cccc3[nH]ccc23)nc2cc(F)cc(F)c2c1N1CC(C)(C)c2ncc(N3CCOCC3)cc21 [4-(3,3-dimethyl-6-(4-morpholinyl)-2,3-dihydro-1H-pyrrolo[3,2-b]pyridin-1-yl)-5,7-difluoro-2-(1H-indol-4-yl)-3-methylquinoline] | 0.00277 µM
14 | Cc1c(-c2ccccn2)nc2cc(F)cc(F)c2c1N1CC2(CCOCC2)c2ncc(N3CCOCC3)cc21 [1′-(5,7-difluoro-3-methyl-2-(2-pyridinyl)-4-quinolinyl)-6′-(4-morpholinyl)-1′,2,2′,3,5,6-hexahydrospiro[pyran-4,3′-pyrrolo[3,2-b]pyridine]] | 0.00944 µM
15 | Cc1c(-c2ccccc2F)nc2cc(F)ccc2c1N1CC2(CCOCC2)c2ccc(N3CCOCC3)cc21 [1-(7-fluoro-2-(2-fluorophenyl)-3-methyl-4-quinolinyl)-6-(4-morpholinyl)-1,2,2′,3′,5′,6′-hexahydrospiro[indole-3,4′-pyran]] | 0.0254 µM
16 | Cc1nc2ccc(Cl)cc2c(-n2cc(C#N)c3ccc(-c4cn[nH]c4)cc32)c1C [1-(6-chloro-2,3-dimethyl-4-quinolinyl)-6-(1H-pyrazol-4-yl)-1H-indole-3-carbonitrile] | 2.11 µM
17 | Cc1nc2ccccc2c(N2CC3(CCOCC3)c3ccc(N4CCOCC4)cc32)c1C [1-(2,3-dimethyl-4-quinolinyl)-6-(4-morpholinyl)-1,2,2′,3′,5′,6′-hexahydrospiro[indole-3,4′-pyran]] | 0.45 µM
18 | Cc1ccc(S(C)(=O)=O)c(-c2nc3cc(F)cc(F)c3c(N3CC4(CCOCC4)c4ncc(N5CCOCC5)cc43)c2C)c1 [1′-(5,7-difluoro-3-methyl-2-(5-methyl-2-(methylsulfonyl)phenyl)-4-quinolinyl)-6′-(4-morpholinyl)-1′,2,2′,3,5,6-hexahydrospiro[pyran-4,3′-pyrrolo[3,2-b]pyridine]] | 0.00151 µM
19 | Cc1nc2ccc(Cl)cc2c(-n2ccc3c(C#N)cc(-c4cn[nH]c4)cc32)c1C [1-(6-chloro-2,3-dimethyl-4-quinolinyl)-6-(1H-pyrazol-4-yl)-1H-indole-4-carbonitrile] | 1.08 µM
20 | Cc1c(N2CCCC2=O)nc2cc(F)cc(F)c2c1N1CC(C)(C)c2ncc(N3CCOCC3)cc21 [1-(4-(3,3-dimethyl-6-(4-morpholinyl)-2,3-dihydro-1H-pyrrolo[3,2-b]pyridin-1-yl)-5,7-difluoro-3-methyl-2-quinolinyl)-2-pyrrolidinone] | 0.00154 µM
21 | Cc1c(N2CCC2=O)nc2cc(F)cc(F)c2c1N1CC2(CCOCC2)c2ncc(N3CCOCC3)cc21 [1-(5,7-difluoro-3-methyl-4-(6′-(4-morpholinyl)-2,3,5,6-tetrahydrospiro[pyran-4,3′-pyrrolo[3,2-b]pyridin]-1′(2′H)-yl)-2-quinolinyl)-2-azetidinone] | 0.0023 µM
22 | COc1cc2nc(C)c(C)c(N3CC4(CCOCC4)c4ccc(C#N)cc43)c2cc1Cl [1-(6-chloro-7-methoxy-2,3-dimethyl-4-quinolinyl)-1,2,2′,3′,5′,6′-hexahydrospiro[indole-3,4′-pyran]-6-carbonitrile] | 7.5 µM
23 | Cc1c(-c2ccccn2)nc2cccc(F)c2c1N1CCS(=O)(=O)c2ncc(N3CCOCC3)cc21 [1-(5-fluoro-3-methyl-2-(2-pyridinyl)-4-quinolinyl)-7-(4-morpholinyl)-2,3-dihydro-1H-pyrido[2,3-b][1,4]thiazine 4,4-dioxide] | 0.0129 µM
24 | Cc1cc(C)cc(-c2nc3cc(F)ccc3c(N3CC(C)(C)c4ncc(N5CCOCC5)cc43)c2C)c1 [4-(3,3-dimethyl-6-(4-morpholinyl)-2,3-dihydro-1H-pyrrolo[3,2-b]pyridin-1-yl)-2-(3,5-dimethylphenyl)-7-fluoro-3-methylquinoline] | 0.0156 µM
25 | Cc1c(-c2ccccc2S(C)(=O)=O)nc2cc(F)cc(F)c2c1N1CC2(CCOCC2)c2ncc(N3CCOCC3)cc21 [1′-(5,7-difluoro-3-methyl-2-(2-(methylsulfonyl)phenyl)-4-quinolinyl)-6′-(4-morpholinyl)-1′,2,2′,3,5,6-hexahydrospiro[pyran-4,3′-pyrrolo[3,2-b]pyridine]] | 0.00451 µM
26 | Cc1nc2ccccc2c(N2CC(C)(C)c3ccc(N4CCOCC4)cc32)c1C [4-(3,3-dimethyl-6-(4-morpholinyl)-2,3-dihydro-1H-indol-1-yl)-2,3-dimethylquinoline] | 0.362 µM
27 | Cc1c(N2CCCCC2=O)nc2cc(F)cc(F)c2c1N1CC2(CCOCC2)c2ncc(N3CCOCC3)cc21 [1-(5,7-difluoro-3-methyl-4-(6′-(4-morpholinyl)-2,3,5,6-tetrahydrospiro[pyran-4,3′-pyrrolo[3,2-b]pyridin]-1′(2′H)-yl)-2-quinolinyl)-2-piperidinone] | 0.00551 µM
28 | Cc1c(-c2ccccn2)nc2cccc(F)c2c1N1CC(C)(C)c2ccc(N3CCOCC3)cc21 [4-(3,3-dimethyl-6-(4-morpholinyl)-2,3-dihydro-1H-indol-1-yl)-5-fluoro-3-methyl-2-(2-pyridinyl)quinoline] | 0.156 µM
29 | Cc1cc(-c2ccc3c(c2)N(c2c(C)c(-c4ccccn4)nc4cc(F)ccc24)CC3(C)C)nc(N)n1 [4-(1-(7-fluoro-3-methyl-2-(2-pyridinyl)-4-quinolinyl)-3,3-dimethyl-2,3-dihydro-1H-indol-6-yl)-6-methyl-2-pyrimidinamine] | 0.449 µM
30 | Cc1c(-c2ccccc2F)nc2cc(Cl)ccc2c1N1CC2(CCOCC2)c2ccc(N3CCOCC3)cc21 [1-(7-chloro-2-(2-fluorophenyl)-3-methyl-4-quinolinyl)-6-(4-morpholinyl)-1,2,2′,3′,5′,6′-hexahydrospiro[indole-3,4′-pyran]] | 0.57 µM
31 | Cc1c(-c2ccccc2)nc2ccccc2c1N1CC(C)(C)c2ccc(N3CCOCC3)cc21 [4-(3,3-dimethyl-6-(4-morpholinyl)-2,3-dihydro-1H-indol-1-yl)-3-methyl-2-phenylquinoline] | 0.0854 µM
32 | Cc1c(N2CCNCC2)nc2cc(F)cc(F)c2c1N1CC2(CCOCC2)c2ncc(N3CCOCC3)cc21 [1′-(5,7-difluoro-3-methyl-2-(1-piperazinyl)-4-quinolinyl)-6′-(4-morpholinyl)-1′,2,2′,3,5,6-hexahydrospiro[pyran-4,3′-pyrrolo[3,2-b]pyridine]] | 0.00137 µM
33 | Cc1nc2ccc(Cl)cc2c(-n2ccc3c(C#N)cc(-c4ccncc4)cc32)c1C [1-(6-chloro-2,3-dimethyl-4-quinolinyl)-6-(4-pyridinyl)-1H-indole-4-carbonitrile] | 1.48 µM
34 | Cc1c(-c2ccc3c(ccn3C)c2)nc2cc(F)cc(F)c2c1N1CC(C)(C)c2ncc(N3CCOCC3)cc21 [4-(3,3-dimethyl-6-(4-morpholinyl)-2,3-dihydro-1H-pyrrolo[3,2-b]pyridin-1-yl)-5,7-difluoro-3-methyl-2-(1-methyl-1H-indol-5-yl)quinoline] | 0.195 µM
